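Where inhibition never reached the appropriate level, the endpoint shown equals the highest concentration tested. Otherwise, values were interpolated linearly from a five-concentration, 48-hour dose response in 96-well plates. GI50 marks 50% less growth. TGI denotes the concentration required for complete inhibition of growth.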
Legend:
Assay in all cases: NCI anticancer screen, dose series, 48 h
[1] = tested on: NCI/ADR-RES ovarian
[2] = tested on: NCI-H522 lung
[3] = tested on: SNB-19 CNS
[4] = tested on: UACC-257 melanoma
[5] = tested on: SR leukemia
[6] = tested on: OVCAR-8 ovarian
[7] = tested on: SK-MEL-2 melanoma
[8] = tested on: NCI-H460 lung
[9] = tested on: CCRF-CEM leukemia
[10] = tested on: HL-60(TB) leukemia
[11] = tested on: UACC-62 melanoma
[12] = tested on: MOLT-4 leukemia
[13] = tested on: LOX IMVI melanoma
[14] = tested on: HOP-62 NSCLC
[15] = tested on: MCF7 breast
[16] = tested on: EKVX NSCLC
[17] = tested on: RPMI-8226 leukemia
[18] = tested on: HS 578T breast
[19] = tested on: SK-MEL-28 melanoma
[20] = tested on: TK-10 renal
[21] = tested on: SF-539 CNS
[22] = tested on: SW-620 colon
[23] = tested on: RXF 393 renal
[24] = tested on: MALME-3M melanoma
[25] = tested on: PC-3 prostate
[26] = tested on: ACHN renal
[27] = tested on: MDA-MB-435
[28] = tested on: SK-MEL-5 melanoma
[29] = tested on: SN12C renal
[30] = tested on: A549 NSCLC
[31] = tested on: IGROV1 ovarian
[32] = tested on: BT-549 breast
[33] = tested on: DU-145 prostate
[34] = tested on: NCI-H23 lung
[35] = tested on: NCI-H226 lung
[36] = tested on: K-562 leukemia
[37] = tested on: COLO 205 colon
[38] = tested on: A498 renal
[39] = tested on: SK-OV-3 ovarian
[40] = tested on: CAKI-1 renal
[41] = tested on: OVCAR-3 ovarian
[42] = tested on: OVCAR-5 ovarian
[43] = tested on: HOP-92 NSCLC
[44] = tested on: SF-268 CNS
[45] = tested on: HT29 colon
[46] = tested on: HCC-2998 colon
[47] = tested on: HCT-116 colon
[48] = tested on: UO-31 renal
[49] = tested on: U251 CNS
[50] = tested on: HCT-15 colon
[51] = tested on: M14 melanoma
[52] = tested on: MDA-MB-231 breast
[53] = tested on: 786-0 renal
[54] = tested on: T-47D breast
[55] = tested on: SF-295 CNS
[56] = tested on: OVCAR-4 ovarian
[57] = tested on: SNB-75 CNS
[58] = tested on: KM12 colon

Structure (SMILES): Brc1c[n+](Cc2ccc3ccccc3c2)cn1Cc1ccc2ccccc2c1
- GI50 [1]: > 100 µM
- TGI [1]: > 100 µM
- GI50 [2]: 1530 nM
- TGI [2]: 3.85 µM
- GI50 [3]: 1410 nM
- TGI [3]: 2750 nM
- GI50 [4]: 1760 nM
- TGI [4]: 4.12 µM
- GI50 [5]: 1170 nM
- TGI [5]: 5.11 µM
- GI50 [6]: 1890 nM
- TGI [6]: 4.55 µM
- GI50 [7]: 1810 nM
- TGI [7]: 3.9 µM
- GI50 [8]: 1780 nM
- TGI [8]: 3.57 µM
- GI50 [9]: 1690 nM
- TGI [9]: 5.04 µM
- GI50 [10]: 1150 nM
- TGI [10]: 3.68 µM
- GI50 [11]: 1240 nM
- TGI [11]: 2580 nM
- GI50 [12]: 1790 nM
- TGI [12]: 5.58 µM
- GI50 [13]: 1420 nM
- TGI [13]: 2740 nM
- GI50 [14]: 2160 nM
- TGI [14]: 5.96 µM
- GI50 [15]: 1590 nM
- TGI [15]: 3.39 µM
- GI50 [16]: 9.93 µM
- TGI [16]: 25 µM
- GI50 [17]: 1020 nM
- TGI [17]: 3.06 µM
- GI50 [18]: 1920 nM
- TGI [18]: 4.84 µM
- GI50 [19]: 1550 nM
- TGI [19]: 3.09 µM
- GI50 [20]: 1860 nM
- TGI [20]: 5.16 µM
- GI50 [21]: 1560 nM
- TGI [21]: 3.04 µM
- GI50 [22]: 1610 nM
- TGI [22]: 3.62 µM
- GI50 [23]: 2510 nM
- TGI [23]: 6.75 µM
- GI50 [24]: 1220 nM
- TGI [24]: 2710 nM
- GI50 [25]: 1540 nM
- TGI [25]: 3.62 µM
- GI50 [26]: 11.8 µM
- TGI [26]: 25.5 µM
- GI50 [27]: 1690 nM
- TGI [27]: 3.22 µM
- GI50 [28]: 1600 nM
- TGI [28]: 2960 nM
- GI50 [29]: 1520 nM
- TGI [29]: 2940 nM
- GI50 [30]: 6.9 µM
- TGI [30]: 29.4 µM
- GI50 [31]: 676 nM
- TGI [31]: 2080 nM
- GI50 [32]: 1690 nM
- TGI [32]: 3.18 µM
- GI50 [33]: 2540 nM
- TGI [33]: 7.75 µM
- GI50 [34]: 1350 nM
- TGI [34]: 3.18 µM
- GI50 [35]: 2240 nM
- TGI [35]: 5.87 µM
- GI50 [36]: 1840 nM
- TGI [36]: 10.6 µM
- GI50 [37]: 1310 nM
- TGI [37]: 3.16 µM
- GI50 [38]: 1880 nM
- TGI [38]: 5.09 µM
- GI50 [39]: 2560 nM
- TGI [39]: 11.4 µM
- GI50 [40]: 2030 nM
- TGI [40]: 5.17 µM
- GI50 [41]: 1410 nM
- TGI [41]: 2860 nM
- GI50 [42]: 2130 nM
- TGI [42]: 8.71 µM
- GI50 [43]: 904 nM
- TGI [43]: 2390 nM
- GI50 [44]: 1470 nM
- TGI [44]: 3.02 µM
- GI50 [45]: 1190 nM
- TGI [45]: 3.35 µM
- GI50 [46]: 1460 nM
- TGI [46]: 2840 nM
- GI50 [47]: 1210 nM
- TGI [47]: 2490 nM
- GI50 [48]: 7.09 µM
- TGI [48]: 23.1 µM
- GI50 [49]: 1670 nM
- TGI [49]: 3.51 µM
- GI50 [50]: 11.5 µM
- TGI [50]: 25.7 µM
- GI50 [51]: 1400 nM
- TGI [51]: 2920 nM
- GI50 [52]: 1400 nM
- TGI [52]: 2860 nM
- GI50 [53]: 1750 nM
- TGI [53]: 3.33 µM
- GI50 [54]: 2140 nM
- TGI [54]: 7.2 µM
- GI50 [55]: 2220 nM
- TGI [55]: 7.28 µM
- GI50 [56]: 1320 nM
- TGI [56]: 2760 nM
- GI50 [57]: 1340 nM
- TGI [57]: 3.03 µM
- GI50 [58]: 1670 nM
- TGI [58]: 3.28 µM
